Assay results as given in BindingDB's records for doi:10.1021/jm00011a006 (University of Minnesota, 1995).

target: Aldehyde dehydrogenase (Saccharomyces cerevisiae); experiment: In vitro inhibition against yeast Aldehyde dehydrogenase

| SMILES | IC50 |
| --- | --- |
| CCOC(=O)On1nnc2ccccc21 [Carbonic acid benzotriazol-1-yl ester ethyl ester] | 270 µM |
| CCOC(=O)ON1C(=O)c2ccccc2S1(=O)=O [Carbonic acid ethyl ester 1,1,3-trioxo-1,3-dihydro-1lambda*6*-benzo[d]isothiazol-2-yl ester] | 56 µM |
| CCOC(=O)ON(C(=O)OCC)S(=O)(=O)c1ccc(Cl)cc1 [ethyl (4-chlorophenyl)sulfonyl[(ethoxycarbonyl)oxy]carbamate] | 24 µM |
